Laboratory results from patent publication US6555139B2, “Preparation of micron-size pharmaceutical particles by microfluidization” (Wockhardt Europe Limited, priority 1999, dated 2003).
Read-outs that look alike come from different tables or passages of the source. Each block holds one molecule with its values, some of them ahead of it.

What was measured:
[1] = cited from earlier work
[2] = Particle size distribution (PSD) of suspensions before/after microfluidization (Mastersizer); assay type: physicochemical; conditions: 5,000 psi, 3 passes
Text: The Microfluidizer M-210 EH operates at higher pressures up to 35000 psi. The process stream enters the inlet reservoir. An air-powered intensifier pumping system accelerates the process stream, propelling into a processing zone called the interaction chamber. This chamber consists of microchannels, where the process stream separates into two. It changes direction and collides into a single stream again. […] Then product is accelerated to a high velocity and is subjected to shear, impact and cavitation. This causes particles and droplets to reduce in size as small as sub-micron depending upon the processing pressure and number of cycles applied. […] After completion of the microfluidization step, the sized particles in suspension pass through pipe 18 out of the system, with a heat exchanger 20 shown in a preferred system to enable on-line drying of the micro-suspension resulting from the microfluidization. The microfluidization process is most conveniently practiced with operating pressures between 2000 pounds per square inch (psi) and 20,000 psi to provide resulting particle sizes of the dimensions most appropriate for pharmaceutical dosing. The process will often progress with increasingly higher operating pressures in each subsequent pass, such as using from 2,000 to 6,000 psi in a first pass, 5,000 to 11,000 psi in a second pass, and from 9,000 to 20,000 psi in a third pass (if needed). Each pass will generally be higher than a previous pass, or operating pressures may remain constant or decrease, depending upon the specific results desired in the processing.

[3] = micronized drug + Klucel LF + micronized β-cyclodextrin + Cremophor RH-40 + water
[4] = micronized drug + Klucel LF + unmicronized β-cyclodextrin + Cremophor RH-40 + water

Structure (SMILES): CCOC(=O)C1=C(C)NC(C)=C(C(=O)OC)C1c1cccc([N+](=O)[O-])c1 (stereo not drawn) [nitrendipine]
absorption from the colon [1]: impaired absorption from the colon

PSD of Output Material After Processing, d (0.9) [2, 3]: 12.15 μm | solubility (pH 1): 0.001% | solubility (pH 5): 0.01%
Structure (SMILES): CCc1cccc2c3c([nH]c12)C(CC)(CC(=O)O)OCC3 (stereo not drawn) [Etodolac, etodolac]

Structure (SMILES): CCOC(=O)C1=C(C)NC(C)=C(C(=O)OC)C1c1cccc(Cl)c1Cl (stereo not drawn) [Felodipine, felodipine]
absorption from the colon [1]: impaired absorption from the colon

PSD of Output Material After Processing, d (0.5) [2, 3]: 5.72 μm | PSD of Output Material After Processing, d (0.9) [2, 3]: 12.06 μm | PSD of Output Material After Processing, d (0.5) [2, 4]: 3.84 μm | PSD of Output Material After Processing, d (0.9) [2, 4]: 7.52 μm
Structure (SMILES): Cc1cnc(C(=O)NCCc2ccc(S(=O)(=O)NC(=O)NC3CCCCC3)cc2)cn1 [Glipizide, glipizide]
